Species on record: Rattus norvegicus
Assay: Open TG-GATES - Regimen: Single
Type: toxicity, organism-based, Sprague-Dawley
Set-up: regimen Single, gender Male, age 6 weeks
Conditions: in vivo, po, 15 mg/kg, route gavage, dose level Low; for APTT / Bas / Eos / Fbg / Hb / Ht / Lym / MCH / MCHC / MCV / Mono / Neu / PT / Plat / RBC / Ret / WBC: tissue Blood; for KIDNEY_L / KIDNEY_R / KIDNEY_TOTAL: tissue Kidney; for LIVER: tissue Liver; for A/G / ALP / ALT / AST / BUN / CRE / Ca / Cl / DBIL / GLC / IP / K / LDH / Na / PL / RALB / TBIL / TC / TG / TP / gamma-GTP: tissue Plasma

## CC1=C(CC(=O)O)c2cc(F)ccc2/C1=C\c1ccc([S+](C)[O-])cc1 (configuration not stated)
3 h
  TERMINAL_BW: 200.6 g
  APTT: 22.7 s
  Bas: 0%
  Eos: 1%
  Fbg: 290.6 mg/dL
  Hb: 13.4 g/dL
  Ht: 40.8%
  Lym: 74.8%
  MCH: 21.4 pg
  MCHC: 32.8%
  MCV: 65.3 fL
  Mono: 3%
  Neu: 21%
  PT: 14 s
  Plat: 130.1 x10_4/uL
  RBC: 625.6 x10_4/ul
  Ret: 8.8%
  WBC: 78.5 x10_2/uL
  KIDNEY_L: 1 g
  KIDNEY_R: 0.9 g
  KIDNEY_TOTAL: 1.9 g
  LIVER: 9.3 g
  A/G: 0.9
  ALP: 1384.2 IU/L
  ALT: 40.4 IU/L
  AST: 69.6 IU/L
  BUN: 11 mg/dL
  CRE: 0.2 mg/dL
  Ca: 10.9 mg/dL
  Cl: 105 meq/L
  DBIL: 0.01 mg/dL
  GLC: 173.2 mg/dL
  IP: 8.4 mg/dL
  K: 4 meq/L
  LDH: 66.8 IU/L
  Na: 140.8 meq/L
  PL: 140.6 mg/dL
  RALB: 2.6 g/dL
  TBIL: 0.036 mg/dL
  TC: 71.2 mg/dL
  TG: 65.6 mg/dL
  TP: 5.3 g/dL
  gamma-GTP: 1 IU/L
6 h
  TERMINAL_BW: 201 g
  APTT: 16.5 s
  Bas: 0%
  Eos: 1%
  Fbg: 279.2 mg/dL
  Hb: 13.5 g/dL
  Ht: 41.4%
  Lym: 74%
  MCH: 20.8 pg
  MCHC: 32.6%
  MCV: 63.7 fL
  Mono: 2.4%
  Neu: 22.4%
  PT: 14.1 s
  Plat: 115.6 x10_4/uL
  RBC: 650.4 x10_4/ul
  Ret: 8.1%
  WBC: 70.2 x10_2/uL
  KIDNEY_L: 0.9 g
  KIDNEY_R: 0.9 g
  KIDNEY_TOTAL: 1.7 g
  LIVER: 8.2 g
  A/G: 1
  ALP: 1365.6 IU/L
  ALT: 41.4 IU/L
  AST: 72.4 IU/L
  BUN: 9 mg/dL
  CRE: 0.2 mg/dL
  Ca: 10.8 mg/dL
  Cl: 106.8 meq/L
  DBIL: 0.006 mg/dL
  GLC: 172.8 mg/dL
  IP: 9.3 mg/dL
  K: 4.3 meq/L
  LDH: 73.2 IU/L
  Na: 141.4 meq/L
  PL: 137.6 mg/dL
  RALB: 2.5 g/dL
  TBIL: 0.03 mg/dL
  TC: 78.6 mg/dL
  TG: 40 mg/dL
  TP: 5.2 g/dL
  gamma-GTP: 1.4 IU/L
9 h
  TERMINAL_BW: 198.6 g
  APTT: 16.9 s
  Bas: 0%
  Eos: 0.8%
  Fbg: 285.6 mg/dL
  Hb: 13.2 g/dL
  Ht: 40.7%
  Lym: 81.4%
  MCH: 21 pg
  MCHC: 32.4%
  MCV: 64.8 fL
  Mono: 2%
  Neu: 15.2%
  PT: 14.2 s
  Plat: 128.1 x10_4/uL
  RBC: 627.6 x10_4/ul
  Ret: 8.8%
  WBC: 72.2 x10_2/uL
  KIDNEY_L: 0.9 g
  KIDNEY_R: 0.9 g
  KIDNEY_TOTAL: 1.8 g
  LIVER: 7.7 g
  A/G: 0.9
  ALP: 1238.2 IU/L
  ALT: 43.4 IU/L
  AST: 74.4 IU/L
  BUN: 10.6 mg/dL
  CRE: 0.2 mg/dL
  Ca: 10.7 mg/dL
  Cl: 108 meq/L
  DBIL: 0.008 mg/dL
  GLC: 173.6 mg/dL
  IP: 9.9 mg/dL
  K: 4.1 meq/L
  LDH: 65.2 IU/L
  Na: 142.2 meq/L
  PL: 135.4 mg/dL
  RALB: 2.5 g/dL
  TBIL: 0.042 mg/dL
  TC: 76.2 mg/dL
  TG: 37.6 mg/dL
  TP: 5.2 g/dL
  gamma-GTP: 1 IU/L
24 h
  TERMINAL_BW: 215 g
  APTT: 22.5 s
  Bas: 0%
  Eos: 1%
  Fbg: 310.4 mg/dL
  Hb: 14 g/dL
  Ht: 43.7%
  Lym: 77.4%
  MCH: 21 pg
  MCHC: 32%
  MCV: 65.8 fL
  Mono: 2.2%
  Neu: 19%
  PT: 13.3 s
  Plat: 125.4 x10_4/uL
  RBC: 665.4 x10_4/ul
  Ret: 7.7%
  WBC: 81.5 x10_2/uL
  KIDNEY_L: 0.9 g
  KIDNEY_R: 0.9 g
  KIDNEY_TOTAL: 1.8 g
  LIVER: 10.4 g
  A/G: 0.9
  ALP: 1898.6 IU/L
  ALT: 48 IU/L
  AST: 70.2 IU/L
  BUN: 15.4 mg/dL
  CRE: 0.2 mg/dL
  Ca: 11.2 mg/dL
  Cl: 104.6 meq/L
  DBIL: 0.01 mg/dL
  GLC: 189.6 mg/dL
  IP: 7.4 mg/dL
  K: 4.2 meq/L
  LDH: 90.8 IU/L
  Na: 141 meq/L
  PL: 176.4 mg/dL
  RALB: 2.7 g/dL
  TBIL: 0.014 mg/dL
  TC: 95 mg/dL
  TG: 134.8 mg/dL
  TP: 5.7 g/dL
  gamma-GTP: 1 IU/L

Source: ChEMBL document CHEMBL3885861, “Open TG-GATES”
